Legend:
CASOB (Sicklepod) = test: Postemergence herbicidal evaluation; format: in vivo, Cassia obtusifolia; settings: postemergence
Method in brief: (§1)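 ~2-wk seedlings; postemergence spray, 40 psi; vehicle 1:1 acetone:water + 0.5% Tween 20; rate ≈0.0156–0.500 kg/ha; greenhouse hold; scored 4–5 wk after treatment, 0–9 scale vs control; repeat tests averaged.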

GALAP (Galium) = test: Postemergence herbicidal evaluation; format: in vivo, Galium aparine; settings: postemergence
Method in brief: as §1

ZEAMX (Corn, Field) [1] = test: Postemergence herbicidal evaluation; format: in vivo, Zea mays; settings: postemergence
Method in brief: as §1

AMBEL (Ragweed, Common) = test: Preemergence herbicidal evaluation; format: in vivo, Ambrosia artemisifolia; settings: rated 4-5 weeks after treatment
Method in brief: (§2)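 In this greenhouse assay, monocot and dicot seeds are planted in soil and treated prior to emergence with an aqueous acetone spray (about 0.0156-0.500 kg/ha). Plants are assessed visually against control on a 0-9 scale after 4-5 weeks.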

[2] = system: CHEAL (Lambsquarters, Common); test: Preemergence herbicidal evaluation; format: in vivo, Chenopodium album; settings: rated 4-5 weeks after treatment
Method in brief: as §2

ORYSAT (Rice, Tebonnet) = test: Preemergence herbicidal evaluation; format: in vivo, Oryza sativa, (L.) Tebonnet; settings: rated 4-5 weeks after treatment
Method in brief: as §2

[3] = system: TRZAWR (Wheat, Winter, cv Riband); test: Preemergence herbicidal evaluation; format: in vivo, Triticum aestivum; settings: rated 4-5 weeks after treatment
Method in brief: as §2

ZEAMX (Corn, Field) [4] = test: Preemergence herbicidal evaluation; format: in vivo, Zea mays; settings: rated 4-5 weeks after treatment
Method in brief: as §2

[5] = system: ECHORC (Watergrass (Calif.)); test: Preemergence weed control under flooded paddy conditions; format: in vivo, Echinochloa oryzoides; settings: rated 3-4 weeks after treatment
Method in brief: (§3)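 Silt loam, seeds in top 0.5 cm; flood held 1.5-3 cm; test cpd as acetone/water 50/50 into flood water, ~0.0313-0.500 kg/ha a.i.; greenhouse 3-4 wk; visual 0-9 score vs control.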

CYPIR (Rice Flatsedge) = test: as above; format: in vivo, Cyperus iria; settings: rated 3-4 weeks after treatment
Method in brief: as §3

CYPSE (Flatsedge) [6] = test: as above; format: in vivo, Cyperus serotinus; settings: rated 3-4 weeks after treatment
Method in brief: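 Flooded-pot preemergence screen with silt loam and seeds in the upper 0.5 cm. Dose about 0.0313 to 0.500 kg/ha, delivered into flood water; visual 0-9 score after 3 to 4 weeks.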

[7] = system: ECHORC (Watergrass (Calif.)); test: Postemergence weed control under flooded paddy conditions; format: in vivo, Echinochloa oryzoides; settings: postemergence weeds, 3-4 weeks after treatment
Method in brief: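 Containers holding 3–5 cm weeds and rice at 1.5–2.5 leaves are flooded to 1.5–3 cm above soil. Compound in 50/50 v/v aqueous/acetone is then added directly to the water, about 0.0313–0.500 kg/ha. Plants are kept in the greenhouse and rated 0–9 visually at 3–4 weeks.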

CYPSE (Flatsedge) [8] = test: as above; format: in vivo, Cyperus serotinus; settings: postemergence weeds, 3-4 weeks after treatment
Description: Results of herbicide evaluation are expressed on a rating scale (0-9). The scale is based upon a visual observation of plant stand, vigor, malformation, size, chlorosis and overall plant appearance as compared with a control.
Plastic containers containing weeds which are 3 to 5 cm tall and rice seedlings at the 1.5 to 2.5 leaf stage are flooded with water. The water is maintained at 1.5 to 3 cm above the soil surface for the duration of the experiment. Test compounds are applied as aqueous/ acetone mixtures 50/50 v/v directly into the flood water to provide the equivalent of about 0.0313 to 0.500 kg/ha of active ingredient. The treated containers are placed on greenhouse benches and cared for in accordance with conventional greenhouse procedures. Three to four weeks after treatment, the test is terminated and each container is examined and herbicidal effect rated according to the rating system provided in Example 37. The compounds evaluated are reported by compound number given in Example 37.

CN1C(=O)CSC1=Nc1cc(N2C(=O)C3=C(CCCC3)C2=O)c(F)cc1Cl [Compound 1, N-{4-chloro-2-fluoro-5-[(3-methyl-4-oxo-2-thiazolidinylidene)amino]phenyl}-1-cyclohexene-1,2-dicarboximide]
CASOB herbicidal rating (CASOB (Sicklepod); rate 0.0157 kg/ha): 0.0 | CASOB herbicidal rating (CASOB (Sicklepod); rate 0.0313 kg/ha): 2.0 | CASOB herbicidal rating (CASOB (Sicklepod); rate 0.0625 kg/ha): 4.0 | CASOB herbicidal rating (CASOB (Sicklepod); rate 0.1250 kg/ha): 4.0 | CASOB herbicidal rating (CASOB (Sicklepod); rate 0.2500 kg/ha): 6.0 | CASOB herbicidal rating (CASOB (Sicklepod); rate 0.5000 kg/ha): 7.0 | GALAP herbicidal rating (GALAP (Galium); rate 0.0157 kg/ha): 4.0 | GALAP herbicidal rating (GALAP (Galium); rate 0.0313 kg/ha): 6.0 | GALAP herbicidal rating (GALAP (Galium); rate 0.0625 kg/ha): 6.0 | GALAP herbicidal rating (GALAP (Galium); rate 0.1250 kg/ha): 8.0 | GALAP herbicidal rating (GALAP (Galium); rate 0.2500 kg/ha): 9.0 | GALAP herbicidal rating (GALAP (Galium); rate 0.5000 kg/ha): 9.0 | ZEAMX herbicidal rating (ZEAMX (Corn, Field) [1]; rate 0.0157 kg/ha): 2.5 | ZEAMX herbicidal rating (ZEAMX (Corn, Field) [1]; rate 0.0313 kg/ha): 3.5 | ZEAMX herbicidal rating (ZEAMX (Corn, Field) [1]; rate 0.0625 kg/ha): 4.0 | ZEAMX herbicidal rating (ZEAMX (Corn, Field) [1]; rate 0.1250 kg/ha): 5.0 | ZEAMX herbicidal rating (ZEAMX (Corn, Field) [1]; rate 0.2500 kg/ha): 5.5 | ZEAMX herbicidal rating (ZEAMX (Corn, Field) [1]; rate 0.5000 kg/ha): 6.5 | AMBEL preemergence herbicidal rating (AMBEL (Ragweed, Common); rate 0.0313 kg/ha): 0.0 | AMBEL preemergence herbicidal rating (AMBEL (Ragweed, Common); rate 0.0625 kg/ha): 2.0 | AMBEL preemergence herbicidal rating (AMBEL (Ragweed, Common); rate 0.1250 kg/ha): 5.0 | AMBEL preemergence herbicidal rating (AMBEL (Ragweed, Common); rate 0.2500 kg/ha): 5.0 | AMBEL preemergence herbicidal rating (AMBEL (Ragweed, Common); rate 0.5000 kg/ha): 6.7 | CHEAL preemergence herbicidal rating ([2]; rate 0.0313 kg/ha): 9.0 | CHEAL preemergence herbicidal rating ([2]; rate 0.0625 kg/ha): 9.0 | CHEAL preemergence herbicidal rating ([2]; rate 0.1250 kg/ha): 9.0 | CHEAL preemergence herbicidal rating ([2]; rate 0.2500 kg/ha): 9.0 | CHEAL preemergence herbicidal rating ([2]; rate 0.5000 kg/ha): 9.0 | ORYSAT preemergence herbicidal rating (ORYSAT (Rice, Tebonnet); rate 0.0313 kg/ha): 0.0 | ORYSAT preemergence herbicidal rating (ORYSAT (Rice, Tebonnet); rate 0.0625 kg/ha): 0.0 | ORYSAT preemergence herbicidal rating (ORYSAT (Rice, Tebonnet); rate 0.1250 kg/ha): 2.0 | ORYSAT preemergence herbicidal rating (ORYSAT (Rice, Tebonnet); rate 0.2500 kg/ha): 3.0 | ORYSAT preemergence herbicidal rating (ORYSAT (Rice, Tebonnet); rate 0.5000 kg/ha): 6.0 | TRZAWR preemergence herbicidal rating ([3]; rate 0.0313 kg/ha): 2.0 | TRZAWR preemergence herbicidal rating ([3]; rate 0.0625 kg/ha): 4.0 | TRZAWR preemergence herbicidal rating ([3]; rate 0.1250 kg/ha): 3.0 | TRZAWR preemergence herbicidal rating ([3]; rate 0.2500 kg/ha): 6.0 | TRZAWR preemergence herbicidal rating ([3]; rate 0.5000 kg/ha): 6.0 | ZEAMX preemergence herbicidal rating (ZEAMX (Corn, Field) [4]; rate 0.0313 kg/ha): 0.0 | ZEAMX preemergence herbicidal rating (ZEAMX (Corn, Field) [4]; rate 0.0625 kg/ha): 0.0 | ZEAMX preemergence herbicidal rating (ZEAMX (Corn, Field) [4]; rate 0.1250 kg/ha): 0.0 | ZEAMX preemergence herbicidal rating (ZEAMX (Corn, Field) [4]; rate 0.2500 kg/ha): 0.0 | ZEAMX preemergence herbicidal rating (ZEAMX (Corn, Field) [4]; rate 0.5000 kg/ha): 2.0 | Herbicidal rating ECHORC ([5]; 0.0313 kg/ha): 2.0 | Herbicidal rating ECHORC ([5]; 0.0625 kg/ha): 4.0 | Herbicidal rating ECHORC ([5]; 0.1250 kg/ha): 6.0 | Herbicidal rating ECHORC ([5]; 0.2500 kg/ha): 7.0 | Herbicidal rating ECHORC ([5]; 0.5000 kg/ha): 9.0 | Herbicidal rating CYPIR (CYPIR (Rice Flatsedge); 0.0313 kg/ha): 2.0 | Herbicidal rating CYPIR (CYPIR (Rice Flatsedge); 0.0625 kg/ha): 7.0 | Herbicidal rating CYPIR (CYPIR (Rice Flatsedge); 0.1250 kg/ha): 9.0 | Herbicidal rating CYPIR (CYPIR (Rice Flatsedge); 0.2500 kg/ha): 9.0 | Herbicidal rating CYPIR (CYPIR (Rice Flatsedge); 0.5000 kg/ha): 9.0 | Herbicidal rating CYPSE (CYPSE (Flatsedge) [6]; 0.0313 kg/ha): 0.0 | Herbicidal rating CYPSE (CYPSE (Flatsedge) [6]; 0.0625 kg/ha): 0.0 | Herbicidal rating CYPSE (CYPSE (Flatsedge) [6]; 0.1250 kg/ha): 0.0 | Herbicidal rating CYPSE (CYPSE (Flatsedge) [6]; 0.2500 kg/ha): 2.0 | Herbicidal rating CYPSE (CYPSE (Flatsedge) [6]; 0.5000 kg/ha): 8.0 | Herbicidal rating ECHORC ([7]; rate 0.0313 kg/ha): 1.0 | Herbicidal rating ECHORC ([7]; rate 0.0625 kg/ha): 2.0 | Herbicidal rating ECHORC ([7]; rate 0.1250 kg/ha): 3.0 | Herbicidal rating ECHORC ([7]; rate 0.2500 kg/ha): 3.5 | Herbicidal rating ECHORC ([7]; rate 0.5000 kg/ha): 5.5 | Herbicidal rating CYPSE (CYPSE (Flatsedge) [8]; rate 0.0313 kg/ha): 0.0 | Herbicidal rating CYPSE (CYPSE (Flatsedge) [8]; rate 0.0625 kg/ha): 0.0 | Herbicidal rating CYPSE (CYPSE (Flatsedge) [8]; rate 0.1250 kg/ha): 0.0 | Herbicidal rating CYPSE (CYPSE (Flatsedge) [8]; rate 0.2500 kg/ha): 1.0 | Herbicidal rating CYPSE (CYPSE (Flatsedge) [8]; rate 0.5000 kg/ha): 4.0
